Experiments:
[1] = target: T1, SeADO (cADO from Synechococcus elongates PCC7942) (Synechococcus elongatus, UniProt Q54764); assay: GC of n-hexane in headspace; type: biochemical; settings: 2 mM n-heptanal, 4% DMSO, ferredoxin, ferredoxin reductase, 800 uM NADPH, 60 uM ferrous ammonium sulphate, O2, HEPES pH 7.2, 37 C
T1 construct: gene Synpcc7942_1593
T1 sequence (Q54764 1-231): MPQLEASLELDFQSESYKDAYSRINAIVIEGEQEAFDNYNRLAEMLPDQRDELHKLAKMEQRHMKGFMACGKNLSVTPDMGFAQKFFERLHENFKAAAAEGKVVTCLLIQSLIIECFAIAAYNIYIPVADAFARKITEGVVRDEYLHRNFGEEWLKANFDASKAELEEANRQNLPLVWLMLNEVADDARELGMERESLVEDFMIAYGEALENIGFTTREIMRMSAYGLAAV

[2] = target: T1, SeADO (cADO from Synechococcus elongates PCC7942); assay: X-ray crystal structure (WT1, […] A; also WT0, […] A, iron-free); GC-QqQ-MS/MS of extracted ligand; type: binding; settings: co-purified ligand in substrate channel; head group bound to Fe2 of di-iron center in WT1; modelled as long-chain fatty alcohol, C18 identified by MS

CCCCCCC=O [n-heptanal]
GC of n-hexane in headspace [1]: N-heptanal was selected as the substrate to measure the activity of cADO proteins.

CCCCCCCCCCCCCCCCCCO [Lred, C18 fatty alcohol]
X-ray crystal structure (WT1, 2.3 A; also WT0, 2.26 A, iron-free); GC-QqQ-MS/MS [2]: the dominant of the remaining components was identified as a C18 fatty alcohol
